In US20050282755A1, “Compositions having antimicrobial activity and uses thereof” (priority 2004, published 2005):
In brackets after ≈: the same amount, converted by molar mass. Starred links: 1 amine or outer side, 2 acyl side, 3 side chain; linkers in the order of their positions; H or OH if unused. Non-standard residues stand in square brackets, D forms with d. Residues, ends and D or L forms follow the SMILES beside them. *: point of attachment. 1Nal = N[C@@H](Cc1cccc2ccccc12)C(=O)O; d(hArg) = N=C(N)NCCCC[C@@H](N)C(=O)O; Ethylenediamine = C(CN[*:2])N[*:1]; Palmitoyl = CCCCCCCCCCCCCCCC(=O)*; Lauroyl = CCCCCCCCCCCC(=O)*; Octanoyl = CCCCCCCC(=O)*; Hexanoyl = CCCCCC(=O)*

How the values were obtained:
Format in all cases: cell-based
Salmonella dublin (Lane) = test: MIC, NCCLS M7-A6 broth microdilution (Table 9, no superscript)
In short: (§1)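 Broth microdilution in cation-adjusted Mueller Hinton broth, log-phase inoculum giving 5×10^5 to 1×10^6 CFU/milliliter per well. Overnight incubation at 37° C. MIC taken as lowest peptide concentration with no visible turbidity versus a no-peptide control.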

[1] = tested on: Staphylococcus epidermidis ATCC 12228; test: as above; conditions: ATCC 12228
In short: as §1

[2] = tested on: Escherichia coli ATCC 25922; test: as above; conditions: ATCC 25922
In short: as §1

[3] = tested on: Pseudomonas aeruginosa ATCC 27853; test: as above; conditions: ATCC 27853
In short: as §1

[4] = tested on: Staphylococcus aureus ATCC 29213; test: MIC, NCCLS M7-A6 broth microdilution, cation-adjusted Mueller Hinton broth (Table 9, no superscript); conditions: ATCC 29213
In short: as §1

Structure (SMILES) | MIC S. dublin (Salmonella dublin (Lane)) [µg/mL] | MIC S. epidermidis [1] [µg/mL] | MIC E. coli [2] [µg/mL] | MIC P. aeruginosa [3] [µg/mL] | MIC S. aureus [4] [µg/mL]
CCCCCCCCCCCC(=O)N[C@@H](CCCNC(=N)N)C(=O)N[C@@H](CO)C(=O)N[C@@H](CCCNC(=N)N)C(=O)N[C@@H](Cc1cccc2ccccc12)C(=O)N[C@@H](CCCNC(=N)N)C(=O)N[C@@H](CC(=O)O)C(=O)N[C@@H](Cc1cccc2ccccc12)C(=O)N[C@@H](C)C(=O)N[C@@H](CCCNC(=N)N)C(=O)N[C@@H](CC(N)=O)C(=O)N[C@@H](Cc1ccccc1)C(=O)N[C@@H](CCSC)C(=O)N[C@@H](CCCNC(=N)N)C(N)=O [Peptide 153, Lauryl-RSRZRDZARNFMR-NH2 Z = 1-naphthylalanine] (Lauroyl-RSR[1Nal]RD[1Nal]ARNFMR-NH2) | 64 (≈ 31.4 µM) | 8 (≈ 3.92 µM) | 32 (≈ 15.7 µM) | 64 (≈ 31.4 µM) | 8 (≈ 3.92 µM)
CCCCCCCCCCCC(=O)N[C@@H](CCCNC(=N)N)C(=O)N[C@@H](CO)C(=O)N[C@@H](CCCNC(=N)N)C(=O)N[C@@H](Cc1cccc2ccccc12)C(=O)N[C@@H](CCCNC(=N)N)C(=O)N[C@@H](CC(=O)O)C(=O)N[C@H](C(=O)N[C@@H](C)C(=O)N[C@@H](CCCNC(=N)N)C(=O)N[C@@H](CC(N)=O)C(=O)N[C@@H](Cc1cccc2ccccc12)C(=O)N[C@@H](CCSC)C(=O)N[C@@H](CCCNC(=N)N)C(N)=O)C(C)C [Peptide 154, Lauryl-RSRZRDVARNZMR-NH2 Z = 1-naphthylalanine] (Lauroyl-RSR[1Nal]RDVARN[1Nal]MR-NH2) | 8 (≈ 4.02 µM) | 8 (≈ 4.02 µM) | 64 (≈ 32.1 µM) | >64 | 4 (≈ 2.01 µM)
CCCCCCCCCCCC(=O)N[C@@H](CCCNC(=N)N)C(=O)N[C@@H](CO)C(=O)N[C@@H](CCCNC(=N)N)C(=O)N[C@@H](Cc1cccc2ccccc12)C(=O)N[C@@H](CCCNC(=N)N)C(=O)N[C@@H](CC(=O)O)C(=O)N[C@@H](Cc1cccc2ccccc12)C(=O)N[C@@H](C)C(=O)N[C@@H](CCCNC(=N)N)C(=O)N[C@@H](CC(N)=O)C(=O)N[C@@H](Cc1cccc2ccccc12)C(=O)N[C@@H](CCSC)C(=O)N[C@@H](CCCNC(=N)N)C(N)=O [Peptide 155, Lauryl-RSRZRDZARNZMR-NH2 Z = 1-naphthylalanine] (Lauroyl-RSR[1Nal]RD[1Nal]ARN[1Nal]MR-NH2) | 16 (≈ 7.65 µM) | 16 (≈ 7.65 µM) | >64 | >64 | 64 (≈ 30.6 µM)
CCCCCCCCCCCC(=O)N[C@@H](CCCNC(=N)N)C(=O)N[C@@H](CO)C(=O)N[C@@H](CCCNC(=N)N)C(=O)N[C@@H](Cc1c[nH]c2ccccc12)C(=O)N[C@@H](CCCNC(=N)N)C(=O)N[C@@H](CC(=O)O)C(=O)N[C@@H](Cc1cccc2ccccc12)C(=O)N[C@@H](C)C(=O)N[C@@H](CCCNC(=N)N)C(=O)N[C@@H](CC(N)=O)C(=O)N[C@@H](Cc1cccc2ccccc12)C(=O)N[C@@H](CCSC)C(=O)N[C@@H](CCCNC(=N)N)C(N)=O [Peptide 156, Lauryl-RSRWRDZARNZMR-NH2 Z = 1-naphthylalanine] (Lauroyl-RSRWRD[1Nal]ARN[1Nal]MR-NH2) | 8 (≈ 3.85 µM) | 16 (≈ 7.69 µM) | 64 (≈ 30.8 µM) | >64 | 32 (≈ 15.4 µM)
CCCCCCCCCCCC(=O)N[C@H](CCCCNC(=N)N)C(=O)N[C@H](CO)C(=O)N[C@H](CCCCNC(=N)N)C(=O)N[C@H](Cc1c[nH]c2ccccc12)C(=O)N[C@H](CCCCNC(=N)N)C(=O)N[C@H](CC(=O)O)C(=O)N[C@@H](C(=O)N[C@H](C)C(=O)N[C@H](CCCCNC(=N)N)C(=O)N[C@H](CC(N)=O)C(=O)N[C@H](Cc1ccccc1)C(=O)N[C@H](CCSC)C(=O)N[C@H](CCCCNC(=N)N)C(N)=O)C(C)C [Peptide 159, Lauryl-xsxwxdvaxnfmx-NH2 x = D-homoarginine] (Lauroyl-[d(hArg)][dS][d(hArg)][dW][d(hArg)][dD][dV][dA][d(hArg)][dN][dF][dM][d(hArg)]-NH2) | 64 (≈ 32 µM) | 8 (≈ 4 µM) | 16 (≈ 7.99 µM) | 32 (≈ 16 µM) | 8 (≈ 4 µM)
CCCCCCCCCCCC(=O)N[C@@H](CCCNC(=N)N)C(=O)N[C@@H](CO)C(=O)N[C@@H](CCCNC(=N)N)C(=O)N[C@@H](Cc1c[nH]c2ccccc12)C(=O)N[C@@H](CCCNC(=N)N)C(=O)N[C@@H](CC(=O)O)C(=O)N[C@H](C(=O)N[C@@H](C)C(=O)N[C@@H](CCCNC(=N)N)C(=O)N[C@@H](CC(N)=O)C(=O)N[C@@H](Cc1ccccc1)C(=O)N[C@@H](CC(C)C)C(N)=O)C(C)C [Peptide 161, Lauryl-RSRWRDVARNFL-NH2] (Lauroyl-RSRWRDVARNFL-NH2) | >64 | 4 (≈ 2.28 µM) | 16 (≈ 9.11 µM) | >64 | 8 (≈ 4.55 µM)
CCCCCCCCCCCC(=O)N[C@@H](CO)C(=O)N[C@@H](CCCNC(=N)N)C(=O)N[C@@H](Cc1c[nH]c2ccccc12)C(=O)N[C@@H](CCCNC(=N)N)C(=O)N[C@@H](CC(=O)O)C(=O)N[C@H](C(=O)N[C@@H](C)C(=O)N[C@@H](CCCNC(=N)N)C(=O)N[C@@H](CC(N)=O)C(=O)N[C@@H](Cc1ccccc1)C(=O)N[C@@H](CC(C)C)C(=O)N[C@@H](CCCNC(=N)N)C(N)=O)C(C)C [Peptide 162, Lauryl-SRWRDVARNFLR-NH2] (Lauroyl-SRWRDVARNFLR-NH2) | 16 (≈ 9.11 µM) | 8 (≈ 4.55 µM) | 32 (≈ 18.2 µM) | >64 | 4 (≈ 2.28 µM)
CCCCCCCCCCCCCCCC(=O)NCCNC(=O)[C@H](CCCNC(=N)N)NC(=O)[C@H](CC(C)C)NC(=O)[C@H](Cc1ccccc1)NC(=O)[C@H](CC(N)=O)NC(=O)[C@H](CCCNC(=N)N)NC(=O)[C@H](C)NC(=O)[C@@H](NC(=O)[C@H](CC(=O)O)NC(=O)[C@H](CCCNC(=N)N)NC(=O)[C@H](Cc1c[nH]c2ccccc12)NC(=O)[C@H](CCCNC(=N)N)NC(=O)[C@H](CO)NC(=O)[C@@H](N)CCCNC(=N)N)C(C)C [Peptide 172, H2N-RSRWRDVARNFLR-Ethylamidopalmitoyl] (H-RSRWRDVARNFLR-{Ethylenediamine-Palmitoyl}; C-terminus assumed) | >64 | 64 (≈ 31.8 µM) | >64 | >64 | >64
CCCCCC(=O)NCCCC[C@H](NC(=O)[C@H](CCCNC(=N)N)NC(=O)[C@H](CC(C)C)NC(=O)[C@H](Cc1ccccc1)NC(=O)[C@H](CC(N)=O)NC(=O)[C@H](CCCNC(=N)N)NC(=O)[C@H](C)NC(=O)[C@@H](NC(=O)[C@H](CC(=O)O)NC(=O)[C@H](CCCNC(=N)N)NC(=O)[C@H](Cc1c[nH]c2ccccc12)NC(=O)[C@H](CCCNC(=N)N)NC(=O)[C@H](CO)NC(=O)[C@@H](N)CCCNC(=N)N)C(C)C)C(N)=O [Peptide 178, H2N-RSRWRDVARNFLRK(Hexanyl)-NH2] (H-RSRWRDVARNFLRK(Hexanoyl)-NH2) | 16 (≈ 8.17 µM) | 2 (≈ 1.02 µM) | 8 (≈ 4.09 µM) | 16 (≈ 8.17 µM) | >64
CCCCCCCC(=O)NCCCC[C@H](NC(=O)[C@H](CCCNC(=N)N)NC(=O)[C@H](CC(C)C)NC(=O)[C@H](Cc1ccccc1)NC(=O)[C@H](CC(N)=O)NC(=O)[C@H](CCCNC(=N)N)NC(=O)[C@H](C)NC(=O)[C@@H](NC(=O)[C@H](CC(=O)O)NC(=O)[C@H](CCCNC(=N)N)NC(=O)[C@H](Cc1c[nH]c2ccccc12)NC(=O)[C@H](CCCNC(=N)N)NC(=O)[C@H](CO)NC(=O)[C@@H](N)CCCNC(=N)N)C(C)C)C(N)=O [Peptide 179, H2N-RSRWRDVARNFLRK(Octanyl)-NH2] (H-RSRWRDVARNFLRK(Octanoyl)-NH2) | 64 (≈ 32.2 µM) | 8 (≈ 4.03 µM) | 32 (≈ 16.1 µM) | 64 (≈ 32.2 µM) | 32 (≈ 16.1 µM)
CCCCCCCCCCCCCCCC(=O)NCCCC[C@H](NC(=O)[C@H](CCCNC(=N)N)NC(=O)[C@H](CC(C)C)NC(=O)[C@H](Cc1ccccc1)NC(=O)[C@H](CC(N)=O)NC(=O)[C@H](CCCNC(=N)N)NC(=O)[C@H](C)NC(=O)[C@@H](NC(=O)[C@H](CC(=O)O)NC(=O)[C@H](CCCNC(=N)N)NC(=O)[C@H](Cc1c[nH]c2ccccc12)NC(=O)[C@H](CCCNC(=N)N)NC(=O)[C@H](CO)NC(=O)[C@@H](N)CCCNC(=N)N)C(C)C)C(N)=O [Peptide 182, H2N-RSRWRDVARNFLRK(Palmitoyl)-NH2] (H-RSRWRDVARNFLRK(Palmitoyl)-NH2) | 32 (≈ 15.3 µM) | 4 (≈ 1.91 µM) | >64 | 64 (≈ 30.5 µM) | 32 (≈ 15.3 µM)
